Reference: ChEMBL document CHEMBL4665624, “Synthesis of 5-(4-(1H-phenanthro[9,10-d]imidazol-2-yl)benzylidene)thiazolidine-2,4-dione as promising DNA and serum albumin-binding agents and evaluation of antitumor activity” (Eur J Med Chem, 2019)

What was measured:
[1] = tested on: HCC 2998; assay: Antitumor activity against human HCC2998 cells assessed as cell growth inhibition at 10 uM incubated for 48 hrs by sulforhodamine B assay; assay type: functional; settings: read-out: GI
[2] = tested on: OVCAR-3; assay: Antitumor activity against human OVCAR-3 cells assessed as cell growth inhibition at 10 uM incubated for 48 hrs by sulforhodamine B assay; assay type: functional; settings: read-out: GI
[3] = tested on: Hs-578T; assay: Antitumor activity against human HS 578T cells assessed as cell growth inhibition at 10 uM incubated for 48 hrs by sulforhodamine B assay; assay type: functional; settings: read-out: GI
[4] = tested on: SNB-75; assay: Antitumor activity against human SNB-75 cells assessed as cell growth inhibition at 10 uM incubated for 48 hrs by sulforhodamine B assay; assay type: functional; settings: read-out: GI
[5] = tested on: MDA-MB-435; assay: Antitumor activity against human MDA-MB-435 cells assessed as cell growth inhibition at 10 uM incubated for 48 hrs by sulforhodamine B assay; assay type: functional; settings: read-out: GI
[6] = tested on: SF-295; assay: Antitumor activity against human SF295 cells assessed as cell growth inhibition at 10 uM incubated for 48 hrs by sulforhodamine B assay; assay type: functional; settings: read-out: GI
[7] = tested on: MDA-MB-231; assay: Antitumor activity against human MDA-MB-231/ATCC cells assessed as cell growth inhibition at 10 uM incubated for 48 hrs by sulforhodamine B assay; assay type: functional; settings: read-out: GI
[8] = tested on: CCRF-CEM; assay: Antitumor activity against human CCRF-CEM cells assessed as cell growth inhibition at 10 uM incubated for 48 hrs by sulforhodamine B assay; assay type: functional; settings: read-out: GI
[9] = tested on: MCF7; assay: Antitumor activity against human MCF7 cells assessed as cell growth inhibition at 10 uM incubated for 48 hrs by sulforhodamine B assay; assay type: functional; settings: read-out: GI
[10] = tested on: NCI/ADR-RES; assay: Antitumor activity against human NCI/ADR-RES cells assessed as cell growth inhibition at 10 uM incubated for 48 hrs by sulforhodamine B assay; assay type: functional; settings: read-out: GI
[11] = tested on: RXF 393; assay: Antitumor activity against human RXF 393 cells assessed as cell growth inhibition at 10 uM incubated for 48 hrs by sulforhodamine B assay; assay type: functional; settings: read-out: GI
[12] = tested on: NCI-H23; assay: Antitumor activity against human NCI-H23 cells assessed as cell growth inhibition at 10 uM incubated for 48 hrs by sulforhodamine B assay; assay type: functional; settings: read-out: GI
[13] = tested on: HT-29; assay: Antitumor activity against human HT-29 cells assessed as cell growth inhibition at 10 uM incubated for 48 hrs by sulforhodamine B assay; assay type: functional; settings: read-out: GI
[14] = tested on: SN12C; assay: Antitumor activity against human SN12C cells assessed as cell growth inhibition at 10 uM incubated for 48 hrs by sulforhodamine B assay; assay type: functional; settings: read-out: GI
[15] = tested on: SF-268; assay: Antitumor activity against human SF268 cells assessed as cell growth inhibition at 10 uM incubated for 48 hrs by sulforhodamine B assay; assay type: functional; settings: read-out: GI
[16] = tested on: SW-620; assay: Antitumor activity against human SW620 cells assessed as cell growth inhibition at 10 uM incubated for 48 hrs by sulforhodamine B assay; settings: SW-620, 48 h, read-out: GI
[17] = tested on: M14; assay: Antitumor activity against human M14 cells assessed as cell growth inhibition at 10 uM incubated for 48 hrs by sulforhodamine B assay; assay type: functional; settings: read-out: GI
[18] = tested on: COLO 205; assay: Antitumor activity against human COLO205 cells assessed as cell growth inhibition at 10 uM incubated for 48 hrs by sulforhodamine B assay; assay type: functional; settings: read-out: GI
[19] = tested on: HCT-116; assay: Antitumor activity against human HCT116 cells assessed as cell growth inhibition at 10 uM incubated for 48 hrs by sulforhodamine B assay; assay type: functional; settings: read-out: GI
[20] = tested on: KM12; assay: Antitumor activity against human KM12 cells assessed as cell growth inhibition at 10 uM incubated for 48 hrs by sulforhodamine B assay; assay type: functional; settings: read-out: GI
[21] = tested on: K562; assay: Antitumor activity against human K562 cells assessed as cell growth inhibition at 10 uM incubated for 48 hrs by sulforhodamine B assay; assay type: functional; settings: read-out: GI
[22] = tested on: SNB-19; assay: Antitumor activity against human SNB-19 cells assessed as cell growth inhibition at 10 uM incubated for 48 hrs by sulforhodamine B assay; assay type: functional; settings: read-out: GI
[23] = tested on: NCI-H522; assay: Antitumor activity against human NCI-H522 cells assessed as cell growth inhibition at 10 uM incubated for 48 hrs by sulforhodamine B assay; assay type: functional; settings: read-out: GI
[24] = tested on: IGROV-1; assay: Antitumor activity against human IGROV1 cells assessed as cell growth inhibition at 10 uM incubated for 48 hrs by sulforhodamine B assay; assay type: functional; settings: read-out: GI
[25] = tested on: UACC-62; assay: Antitumor activity against human UACC-62 cells assessed as cell growth inhibition at 10 uM incubated for 48 hrs by sulforhodamine B assay; assay type: functional; settings: read-out: GI
[26] = tested on: U-251; assay: Antitumor activity against human U251 cells assessed as cell growth inhibition at 10 uM incubated for 48 hrs by sulforhodamine B assay; assay type: functional; settings: read-out: GI
[27] = tested on: PC-3; assay: Antitumor activity against human PC-3 cells assessed as cell growth inhibition at 10 uM incubated for 48 hrs by sulforhodamine B assay; assay type: functional; settings: read-out: GI
[28] = tested on: MOLT-4; assay: Antitumor activity against human MOLT4 cells assessed as cell growth inhibition at 10 uM incubated for 48 hrs by sulforhodamine B assay; assay type: functional; settings: read-out: GI
[29] = tested on: SK-MEL-28; assay: Antitumor activity against human SK-MEL-28 cells assessed as cell growth inhibition at 10 uM incubated for 48 hrs by sulforhodamine B assay; assay type: functional; settings: read-out: GI
[30] = tested on: OVCAR-4; assay: Antitumor activity against human OVCAR-4 cells assessed as cell growth inhibition at 10 uM incubated for 48 hrs by sulforhodamine B assay; assay type: functional; settings: read-out: GI
[31] = tested on: MDA-MB-468; assay: Antitumor activity against human MDA-MB-468 cells assessed as cell growth inhibition at 10 uM incubated for 48 hrs by sulforhodamine B assay; assay type: functional; settings: read-out: GI
[32] = tested on: LOX IMVI; assay: Antitumor activity against human LOX IMVI cells assessed as cell growth inhibition at 10 uM incubated for 48 hrs by sulforhodamine B assay; assay type: functional; settings: read-out: GI
[33] = tested on: EKVX; assay: Antitumor activity against human EKVX cells assessed as cell growth inhibition at 10 uM incubated for 48 hrs by sulforhodamine B assay; assay type: functional; settings: read-out: GI
[34] = tested on: SR; assay: Antitumor activity against human SR cells assessed as cell growth inhibition at 10 uM incubated for 48 hrs by sulforhodamine B assay; assay type: functional; settings: read-out: GI
[35] = tested on: ACHN; assay: Antitumor activity against human ACHN cells assessed as cell growth inhibition at 10 uM incubated for 48 hrs by sulforhodamine B assay; assay type: functional; settings: read-out: GI
[36] = tested on: SK-OV-3; assay: Antitumor activity against human SK-OV-3 cells assessed as cell growth inhibition at 10 uM incubated for 48 hrs by sulforhodamine B assay; assay type: functional; settings: read-out: GI
[37] = tested on: Malme-3M; assay: Antitumor activity against human MALME-3M cells assessed as cell growth inhibition at 10 uM incubated for 48 hrs by sulforhodamine B assay; assay type: functional; settings: read-out: GI
[38] = tested on: UO-31; assay: Antitumor activity against human UO-31 cells assessed as cell growth inhibition at 10 uM incubated for 48 hrs by sulforhodamine B assay; assay type: functional; settings: read-out: GI
[39] = tested on: NCI-H460; assay: Antitumor activity against human NCI-H460 assessed as cell growth inhibition at 10 uM incubated for 48 hrs by sulforhodamine B assay; assay type: functional; settings: read-out: GI
[40] = tested on: HCT-15; assay: Antitumor activity against human HCT15 cells assessed as cell growth inhibition at 10 uM incubated for 48 hrs by sulforhodamine B assay; assay type: functional; settings: read-out: GI
[41] = tested on: A498; assay: Antitumor activity against human A498 cells assessed as cell growth inhibition at 10 uM incubated for 48 hrs by sulforhodamine B assay; assay type: functional; settings: read-out: GI
[42] = tested on: 786-0; assay: Antitumor activity against human 786-0 cells assessed as cell growth inhibition at 10 uM incubated for 48 hrs by sulforhodamine B assay; assay type: functional; settings: read-out: GI
[43] = tested on: BT-549; assay: Antitumor activity against human BT-549 cells assessed as cell growth inhibition at 10 uM incubated for 48 hrs by sulforhodamine B assay; assay type: functional; settings: read-out: GI
[44] = tested on: RPMI-8226; assay: Antitumor activity against human RPMI8226 cells assessed as cell growth inhibition at 10 uM incubated for 48 hrs by sulforhodamine B assay; assay type: functional; settings: read-out: GI
[45] = tested on: HL-60(TB); assay: Antitumor activity against human HL-60(TB) cells assessed as cell growth inhibition at 10 uM incubated for 48 hrs by sulforhodamine B assay; assay type: functional; settings: read-out: GI
[46] = tested on: OVCAR-8; assay: Antitumor activity against human OVCAR-8 cells assessed as cell growth inhibition at 10 uM incubated for 48 hrs by sulforhodamine B assay; assay type: functional; settings: read-out: GI
[47] = tested on: NCI-H226; assay: Antitumor activity against human NCI-H226 assessed as cell growth inhibition at 10 uM incubated for 48 hrs by sulforhodamine B assay; assay type: functional; settings: read-out: GI
[48] = tested on: HOP-92; assay: Antitumor activity against human HOP92 cells assessed as cell growth inhibition at 10 uM incubated for 48 hrs by sulforhodamine B assay; assay type: functional; settings: read-out: GI

O=Cc1ccc(-c2nc3c([nH]2)-c2cccc4cccc-3c24)cc1
inhibition of growth at 10 µM [1]: 12.8%
inhibition of growth at 10 µM [2]: 12.3%
inhibition of growth at 10 µM [3]: < 10%
inhibition of growth at 10 µM [4]: < 10%
inhibition of growth at 10 µM [5]: < 10%
inhibition of growth at 10 µM [6]: < 10%
inhibition of growth at 10 µM [7]: 25.6%
inhibition of growth at 10 µM [8]: 11.1%
inhibition of growth at 10 µM [9]: 51.6%
inhibition of growth at 10 µM [10]: < 10%
inhibition of growth at 10 µM [11]: < 10%
inhibition of growth at 10 µM [12]: 14.9%
inhibition of growth at 10 µM [13]: < 10%
inhibition of growth at 10 µM [14]: < 10%
inhibition of growth at 10 µM [15]: 13.3%
inhibition of growth at 10 µM [16]: < 10%
inhibition of growth at 10 µM [17]: < 10%
inhibition of growth at 10 µM [18]: < 10%
inhibition of growth at 10 µM [19]: 19.2%
inhibition of growth at 10 µM [20]: 13%
inhibition of growth at 10 µM [21]: 16.5%
inhibition of growth at 10 µM [22]: < 10%
inhibition of growth at 10 µM [23]: < 10%
inhibition of growth at 10 µM [24]: 28.9%
inhibition of growth at 10 µM [25]: 19.8%
inhibition of growth at 10 µM [26]: < 10%
inhibition of growth at 10 µM [27]: 21.1%
inhibition of growth at 10 µM [28]: 20.5%
inhibition of growth at 10 µM [29]: < 10%
inhibition of growth at 10 µM [30]: 27.4%
inhibition of growth at 10 µM [31]: 30.9%
inhibition of growth at 10 µM [32]: 25.8%
inhibition of growth at 10 µM [33]: 23%
inhibition of growth at 10 µM [34]: 16%
inhibition of growth at 10 µM [35]: < 10%
inhibition of growth at 10 µM [36]: < 10%
inhibition of growth at 10 µM [37]: < 10%
inhibition of growth at 10 µM [38]: 33.4%
inhibition of growth at 10 µM [39]: 23.6%
inhibition of growth at 10 µM [40]: 23.7%
inhibition of growth at 10 µM [41]: < 10%
inhibition of growth at 10 µM [42]: < 10%
inhibition of growth at 10 µM [43]: < 10%
inhibition of growth at 10 µM [44]: 22.8%
inhibition of growth at 10 µM [45]: < 10%
inhibition of growth at 10 µM [46]: < 10%
inhibition of growth at 10 µM [47]: 12.4%
inhibition of growth at 10 µM [48]: 14%
